# Reference: PubChem BioAssay AID2060617 (Molecular Pharmacology Branch, DTP, NCI, 2025)
# “And” between values parts separate entries of the source, which are not always exact repeats. Identical values can stand only once.
# System: 485368-065-R4-J2-PDC spheroids with HUVEC/MSC, viability
# Assay: Anticancer human tumor 485368-065-R4-J2-PDC patient-derived pancreatic carcinoma cell line growth inhibition [CLK]
# Settings: for viability, T/C: stronger effect = lower value
# In short: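 Patient-derived tumor cells grown as complex spheroids with HUVEC endothelial cells and mesenchymal stem cells, treated with drug combinations. Concentrations descend in half-log steps from near clinical Cmax, or from 10 microM if Cmax unknown.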
# [1] = curve of first compound, second compound 0.0316 µM
# [2] = curve of first compound, second compound 0.1 µM
# [3] = curve of first compound, second compound 0.316 µM
# [4] = curve of first compound, second compound 1 µM
# [5] = curve of first compound, second compound 3.16 µM
# [6] = curve of first compound, second compound 10 µM
# [7] = second compound 0.0316 µM, first compound 0.0316 µM
# [8] = second compound 0.0316 µM, first compound 0.1 µM
# [9] = second compound 0.0316 µM, first compound 0.316 µM
# [10] = second compound 0.0316 µM, first compound 1 µM
# [11] = second compound 0.0316 µM, first compound 3.16 µM
# [12] = second compound 0.0316 µM, first compound 10 µM
# [13] = second compound 0.1 µM, first compound 0.0316 µM
# [14] = second compound 0.1 µM, first compound 0.1 µM
# [15] = second compound 0.1 µM, first compound 0.316 µM
# [16] = second compound 0.1 µM, first compound 1 µM
# [17] = second compound 0.1 µM, first compound 3.16 µM
# [18] = second compound 0.1 µM, first compound 10 µM
# [19] = second compound 0.316 µM, first compound 0.0316 µM
# [20] = second compound 0.316 µM, first compound 0.1 µM
# [21] = second compound 0.316 µM, first compound 0.316 µM
# [22] = second compound 0.316 µM, first compound 1 µM
# [23] = second compound 0.316 µM, first compound 3.16 µM
# [24] = second compound 0.316 µM, first compound 10 µM
# [25] = second compound 1 µM, first compound 0.0316 µM
# [26] = second compound 1 µM, first compound 0.1 µM
# [27] = second compound 1 µM, first compound 0.316 µM
# [28] = second compound 1 µM, first compound 1 µM
# [29] = second compound 1 µM, first compound 3.16 µM
# [30] = second compound 1 µM, first compound 10 µM
# [31] = second compound 3.16 µM, first compound 0.0316 µM
# [32] = second compound 3.16 µM, first compound 0.1 µM
# [33] = second compound 3.16 µM, first compound 0.316 µM
# [34] = second compound 3.16 µM, first compound 1 µM
# [35] = second compound 3.16 µM, first compound 3.16 µM
# [36] = second compound 3.16 µM, first compound 10 µM
# [37] = second compound 10 µM, first compound 0.0316 µM
# [38] = second compound 10 µM, first compound 0.1 µM
# [39] = second compound 10 µM, first compound 0.316 µM
# [40] = second compound 10 µM, first compound 1 µM
# [41] = second compound 10 µM, first compound 3.16 µM
# [42] = second compound 10 µM, first compound 10 µM
# 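Also: spheroids exposed to compounds for seven days.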
# 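For viability, T/C in this document: 100% = DMSO vehicle control wells.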
smiles,measurement,setting,value
CC(Nc1ccc2c(c1)OCCn1cc(N3C(=O)OCC3C(F)F)nc1-2)C(N)=O (stereo unspecified) + CNC(=O)c1ccc(Nc2nc(OC3CCCC3)c3c(-c4ccc5nc(C)oc5c4)c[nH]c3n2)c(OC)c1,IC50,[1],> 10000 nM
same,IC50,[2],> 10000 nM
same,IC50,[3],> 10000 nM
same,IC50,[4],2510 nM
same,IC50,[5],368 nM
same,IC50,[6],400 nM
same,"viability, T/C",[7],93.5%
same,"viability, T/C",[8],119%
same,"viability, T/C",[9],105%
same,"viability, T/C",[10],97.2%
same,"viability, T/C",[11],90.4%
same,"viability, T/C",[12],79.3%
same,"viability, T/C",[13],92.3%
same,"viability, T/C",[14],116%
same,"viability, T/C",[15],102%
same,"viability, T/C",[16],89.8%
same,"viability, T/C",[17],75.2%
same,"viability, T/C",[18],67.5%
same,"viability, T/C",[19],76.8%
same,"viability, T/C",[20],82.1%
same,"viability, T/C",[21],71.1%
same,"viability, T/C",[22],63.8%
same,"viability, T/C",[23],63.3%
same,"viability, T/C",[24],54.1%
same,"viability, T/C",[25],81.8%
same,"viability, T/C",[26],64.8%
same,"viability, T/C",[27],63.2%
same,"viability, T/C",[28],57.8%
same,"viability, T/C",[29],47.5%
same,"viability, T/C",[30],43.7%
same,"viability, T/C",[31],68.2%
same,"viability, T/C",[32],59%
same,"viability, T/C",[33],50%
same,"viability, T/C",[34],45.8%
same,"viability, T/C",[35],38.7%
same,"viability, T/C",[36],36.6%
same,"viability, T/C",[37],61%
same,"viability, T/C",[38],56.6%
same,"viability, T/C",[39],50.1%
same,"viability, T/C",[40],45.5%
same,"viability, T/C",[41],41.5%
same,"viability, T/C",[42],33.8%
COc1cccc2c1C(=O)c1c(O)c3c(c(O)c1C2=O)CC(O)(C(=O)CO)CC3OC1CC(N)C(O)C(C)O1 (stereo unspecified),"viability, T/C",compound 0.0316 µM,98.8% and 100%
same,"viability, T/C",compound 0.1 µM,102% and 91.6%
same,"viability, T/C",compound 0.316 µM,67.6% and 66.2%
same,"viability, T/C",compound 1 µM,35% and 37.2%
same,"viability, T/C",compound 3.16 µM,7.33% and 9.65%
same,"viability, T/C",compound 10 µM,19.4% and 24.4%
same,IC50,curve of compound,574 nM and 566 nM
O=c1[nH]cc(F)c(=O)[nH]1 + CN1CCN(c2cc(C(=O)Nc3cc4cc(-c5cnn(C)c5)ccc4cn3)ccn2)CC1,IC50,[1],> 10000 nM
same,IC50,[2],> 10000 nM
same,IC50,[3],> 10000 nM
same,IC50,[4],< 31.6 nM
same,IC50,[5],< 31.6 nM
same,IC50,[6],< 31.6 nM
same,"viability, T/C",[7],99.3%
same,"viability, T/C",[8],108%
same,"viability, T/C",[9],102%
same,"viability, T/C",[10],112%
same,"viability, T/C",[11],99.6%
same,"viability, T/C",[12],82%
same,"viability, T/C",[13],106%
same,"viability, T/C",[14],114%
same,"viability, T/C",[15],115%
same,"viability, T/C",[16],110%
same,"viability, T/C",[17],114%
same,"viability, T/C",[18],81.8%
same,"viability, T/C",[19],90%
same,"viability, T/C",[20],89.7%
same,"viability, T/C",[21],87.6%
same,"viability, T/C",[22],91.8%
same,"viability, T/C",[23],101%
same,"viability, T/C",[24],62%
same,"viability, T/C",[25],1.1%
same,"viability, T/C",[26],1.31%
same,"viability, T/C",[27],0.78%
same,"viability, T/C",[28],0.63%
same,"viability, T/C",[29],0.79%
same,"viability, T/C",[30],1.51%
same,"viability, T/C",[31],1.14%
same,"viability, T/C",[32],2.13%
same,"viability, T/C",[33],1.09%
same,"viability, T/C",[34],1.94%
same,"viability, T/C",[35],1.84%
same,"viability, T/C",[36],2%
same,"viability, T/C",[37],1.01%
same,"viability, T/C",[38],2.05%
same,"viability, T/C",[39],2.31%
same,"viability, T/C",[40],1.29%
same,"viability, T/C",[41],1.06%
same,"viability, T/C",[42],1.21%
CC(CO)NC(=O)c1cc(-c2ccc(Cl)cc2)nn(-c2cnn(C)c2)c1=O (stereo unspecified),"viability, T/C",compound 0.0316 µM,86.9% and 92.3%
same,"viability, T/C",compound 0.1 µM,92.6% and 87.3%
same,"viability, T/C",compound 0.316 µM,97.4% and 89.7%
same,"viability, T/C",compound 1 µM,100% and 101%
same,"viability, T/C",compound 3.16 µM,107% and 110%
same,"viability, T/C",compound 10 µM,105% and 104%
same,IC50,curve of compound,> 10000 nM
C#Cc1c(F)ccc2cc(O)cc(-c3ncc4c(N5CC6CCC(C5)N6)nc(OCC56CCCN5CC(F)C6)nc4c3F)c12 (stereo unspecified),"viability, T/C",compound 0.0316 µM,99.6% and 90.9%
same,"viability, T/C",compound 0.1 µM,97.5% and 111%
same,"viability, T/C",compound 0.316 µM,102% and 103%
same,"viability, T/C",compound 1 µM,98.2% and 102%
same,"viability, T/C",compound 3.16 µM,117% and 107%
same,"viability, T/C",compound 10 µM,114% and 106%
same,IC50,curve of compound,> 10000 nM
C=CC(=O)N1CCN(c2nc(=O)n(-c3c(C)ccnc3C(C)C)c3nc(-c4c(O)cccc4F)c(F)cc23)C(C)C1 (stereo unspecified) + CN1CCN(c2cc(C(=O)Nc3cc4cc(-c5cnn(C)c5)ccc4cn3)ccn2)CC1,IC50,[1],> 10000 nM
same,IC50,[2],> 10000 nM
same,IC50,[3],> 10000 nM
same,IC50,[4],< 31.6 nM
same,IC50,[5],< 31.6 nM
same,IC50,[6],< 31.6 nM
same,"viability, T/C",[7],107%
same,"viability, T/C",[8],106%
same,"viability, T/C",[9],99.6%
same,"viability, T/C",[10],104%
same,"viability, T/C",[11],99.5%
same,"viability, T/C",[12],106%
same,"viability, T/C",[13],96.7%
same,"viability, T/C",[14],121%
same,"viability, T/C",[15],107%
same,"viability, T/C",[16],108%
same,"viability, T/C",[17],105%
same,"viability, T/C",[18],102%
same,"viability, T/C",[19],83.3%
same,"viability, T/C",[20],86.6%
same,"viability, T/C",[21],94.9%
same,"viability, T/C",[22],94.1%
same,"viability, T/C",[23],88.9%
same,"viability, T/C",[24],78.7%
same,"viability, T/C",[25],1.22%
same,"viability, T/C",[26],1.11%
same,"viability, T/C",[27],1.36%
same,"viability, T/C",[28],1.9%
same,"viability, T/C",[29],3.44%
same,"viability, T/C",[30],3.58%
same,"viability, T/C",[31],3.01%
same,"viability, T/C",[32],2.65%
same,"viability, T/C",[33],2.4%
same,"viability, T/C",[34],2.51%
same,"viability, T/C",[35],4.69%
same,"viability, T/C",[36],10.6%
same,"viability, T/C",[37],1.58%
same,"viability, T/C",[38],2.84%
same,"viability, T/C",[39],2.36%
same,"viability, T/C",[40],3.44%
same,"viability, T/C",[41],4%
same,"viability, T/C",[42],8.87%
Nc1ccn(C2OC(CO)C(O)C2(F)F)c(=O)n1 (stereo unspecified),"viability, T/C",compound 0.0316 µM,46.4% and 56.8%
same,"viability, T/C",compound 0.1 µM,30.6% and 37.9%
same,"viability, T/C",compound 0.316 µM,29.7% and 32.5%
same,"viability, T/C",compound 1 µM,31.6% and 32.8%
same,"viability, T/C",compound 3.16 µM,31.5% and 31.4%
same,"viability, T/C",compound 10 µM,26.7% and 30.9%
same,IC50,curve of compound,< 31.6 nM and 47.7 nM
CC1COCCN1c1cc(C2(S(C)(=N)=O)CC2)nc(-c2ccnc3[nH]ccc23)n1 (stereo unspecified) + CN1CCN(c2cc(C(=O)Nc3cc4cc(-c5cnn(C)c5)ccc4cn3)ccn2)CC1,IC50,[1],> 10000 nM
same,IC50,[2],> 10000 nM
same,IC50,[3],6830 nM
same,IC50,[4],< 31.6 nM
same,IC50,[5],< 31.6 nM
same,IC50,[6],< 31.6 nM
same,"viability, T/C",[7],102%
same,"viability, T/C",[8],111%
same,"viability, T/C",[9],102%
same,"viability, T/C",[10],119%
same,"viability, T/C",[11],118%
same,"viability, T/C",[12],107%
same,"viability, T/C",[13],107%
same,"viability, T/C",[14],119%
same,"viability, T/C",[15],113%
same,"viability, T/C",[16],120%
same,"viability, T/C",[17],103%
same,"viability, T/C",[18],90.9%
same,"viability, T/C",[19],88.5%
same,"viability, T/C",[20],88.3%
same,"viability, T/C",[21],74.8%
same,"viability, T/C",[22],75.2%
same,"viability, T/C",[23],60.3%
same,"viability, T/C",[24],44.4%
same,"viability, T/C",[25],1%
same,"viability, T/C",[26],1.87%
same,"viability, T/C",[27],1.95%
same,"viability, T/C",[28],1.83%
same,"viability, T/C",[29],1.71%
same,"viability, T/C",[30],2.07%
same,"viability, T/C",[31],1.39%
same,"viability, T/C",[32],2.33%
same,"viability, T/C",[33],2.68%
same,"viability, T/C",[34],2.72%
same,"viability, T/C",[35],3.59%
same,"viability, T/C",[36],1.89%
same,"viability, T/C",[37],1.49%
same,"viability, T/C",[38],2.62%
same,"viability, T/C",[39],2.44%
same,"viability, T/C",[40],1.98%
same,"viability, T/C",[41],1.76%
same,"viability, T/C",[42],3.15%
